Measured values as given in paper PMC8862293, “Quercetin mitigates rheumatoid arthritis by inhibiting adenosine deaminase in rats” (Molecular Medicine, 2022).

Target: T1, adenosine deaminase (ADA) (Rattus norvegicus, UniProt Q920P6)
T1 construct: native enzyme partially purified from rat joint tissue
T1 sequence (Q920P6 2-352): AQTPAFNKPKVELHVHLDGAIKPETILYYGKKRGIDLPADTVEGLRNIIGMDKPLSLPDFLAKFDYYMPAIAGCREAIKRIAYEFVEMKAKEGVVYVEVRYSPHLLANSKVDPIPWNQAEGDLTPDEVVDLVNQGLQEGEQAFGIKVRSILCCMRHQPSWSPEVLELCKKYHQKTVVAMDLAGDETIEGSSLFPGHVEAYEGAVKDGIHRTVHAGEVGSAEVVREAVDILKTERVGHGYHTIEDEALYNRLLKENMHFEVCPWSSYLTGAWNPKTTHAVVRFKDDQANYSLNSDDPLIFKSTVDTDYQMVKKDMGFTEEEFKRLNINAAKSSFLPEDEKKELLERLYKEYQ
Assay: Colorimetric (Giusti) ADA activity assay on partially purified rat joint enzyme; Lineweaver-Burk kinetics
Type: biochemical

**Q.** How did the IC50 turn out when `O=c1c(O)c(-c2ccc(O)c(O)c2)oc2cc(O)cc(O)c12` [quercetin] was run?
**A.** 170 µM
